According to ChEMBL document CHEMBL1134491, “QSAR and molecular modeling studies of baclofen analogues as GABA(B) agonists. Insights into the role of the aromatic moiety in GABA(B) binding and activation” (J Med Chem, 2001):

Test: Inhibitory concentration against binding of (R)-(-)-[3H]-baclofen to GABAB sites on rat whole brain synaptic membrane

| SMILES | IC50 [µM] |
| --- | --- |
| Cc1ccc([C@H](CN)CC(=O)O)o1 | > 100 |
| NC[C@H](CC(=O)O)c1ccsc1 | 20.9 |
| NC[C@H](CC(=O)O)c1ccco1 | > 100 |
| NC[C@H](CC(=O)O)c1cc(Cl)cs1 | 45.3 |
| Cc1ccc([C@H](CN)CC(=O)O)s1 | 134 |
| NC[C@H](CC(=O)O)c1ccc(F)cc1 | 0.8 |
| NC[C@H](CC(=O)O)c1ccc(Cl)s1 | 0.61 |
| Cc1ccsc1[C@H](CN)CC(=O)O | 124 |
| NC[C@H](CC(=O)O)c1ccc(Br)s1 | 1.86 |
| NC[C@H](CC(=O)O)c1cccs1 | 9.72 |
| NC[C@H](CC(=O)O)c1cc(Br)cs1 | 39.1 |
| NC[C@H](CC(=O)O)c1ccc(O)cc1 | > 100 |
| NC[C@H](CC(=O)O)c1cccc(Cl)c1 | 20 |
| NC[C@H](CC(=O)O)c1ccccc1Cl | 0.8 |
